# According to patent EP2970215B1, “PYRROLIDINE DERIVATIVES, PHARMACEUTICAL COMPOSITIONS CONTAINING THEM, AND THEIR USE IN THERAPY” (AbbVie Deutschland GmbH & Co. KG, priority 2013, dated 2014):
# Target: T1, human GlyT1c transporter (Homo sapiens, UniProt P48067)
# T1 construct: expressed in transfected cells; host or cells: CHO cells (recombinant; line hGlyT1c_5_CHO is named for the uptake assay)
# T1 sequence (P48067 1-706): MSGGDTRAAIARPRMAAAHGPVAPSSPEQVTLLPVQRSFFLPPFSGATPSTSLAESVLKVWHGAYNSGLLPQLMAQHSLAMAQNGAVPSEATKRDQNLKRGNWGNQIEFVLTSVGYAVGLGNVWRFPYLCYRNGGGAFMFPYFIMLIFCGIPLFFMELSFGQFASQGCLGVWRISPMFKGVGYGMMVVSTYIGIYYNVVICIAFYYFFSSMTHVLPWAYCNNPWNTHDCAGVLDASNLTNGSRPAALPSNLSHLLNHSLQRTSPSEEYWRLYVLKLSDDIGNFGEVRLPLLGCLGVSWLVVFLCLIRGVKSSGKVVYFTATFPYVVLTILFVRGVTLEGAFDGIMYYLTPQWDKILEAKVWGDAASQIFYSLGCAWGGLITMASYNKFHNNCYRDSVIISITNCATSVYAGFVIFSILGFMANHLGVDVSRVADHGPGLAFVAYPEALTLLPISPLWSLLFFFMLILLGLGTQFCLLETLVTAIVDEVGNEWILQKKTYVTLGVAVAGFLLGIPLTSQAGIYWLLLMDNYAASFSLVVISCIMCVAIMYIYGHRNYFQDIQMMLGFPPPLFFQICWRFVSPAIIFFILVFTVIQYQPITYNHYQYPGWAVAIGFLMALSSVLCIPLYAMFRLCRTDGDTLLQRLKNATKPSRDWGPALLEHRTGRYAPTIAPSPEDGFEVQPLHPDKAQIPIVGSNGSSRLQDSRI
# Assay: Radioligand binding assay using recombinant CHO cell membranes expressing human GlyT1
# Conditions: radioligand binding to human GlyT1c transporter-expressing membranes
# Description: 2. Radioligand binding assays using recombinant CHO cell membranes expressing human GlyT1: […]
row,SMILES,Ki
1,"COc1cccc(C(=O)N[C@@H]2CN(S(=O)(=O)c3cn(C)cn3)C[C@H]2c2ccccc2)c1 (relative stereo) [Example 21, 3-methoxy-N-{trans-1-[(1-methyl-1H-imidazol-4-yl)sulfonyl]-4-phenylpyrrolidin-3-yl}benzamide]",≤ 10 µM
2,"Cc1ccccc1C(=O)N[C@@H]1CN(S(=O)(=O)c2cn(C)cn2)C[C@H]1c1ccccc1 (relative stereo) [Example 22, 2-methyl-N-{trans-1-[(1-methyl-1H-imidazol-4-yl)sulfonyl]-4-phenylpyrrolidin-3-yl}benzamide]",≤ 10 µM
3,"Cn1cnc(S(=O)(=O)N2C[C@@H](NC(=O)c3ccccc3)[C@H](c3ccccc3)C2)c1 (relative stereo) [Example 25, N-{trans-1-[(1-methyl-1H-imidazol-4-yl)sulfonyl]-4-phenylpyrrolidin-3-yl}benzamide]",≤ 10 µM
4,"Cn1cnc(S(=O)(=O)N2C[C@@H](NC(=O)c3ccc(F)cc3Cl)[C@H](c3ccccc3)C2)c1 (relative stereo) [Example 27, 2-chloro-4-fluoro-N-{trans-1-[(1-methyl-1H-imidazol-4-yl)sulfonyl]-4-phenylpyrrolidin-3-yl}benzamide]",≤ 1 µM
5,"Cn1cnc(S(=O)(=O)N2C[C@@H](Nc3ccccc3)[C@H](c3ccccc3)C2)c1 (relative stereo) [Example 29, trans-1-[(1-methyl-1H-imidazol-4-yl)sulfonyl]-N,4-diphenylpyrrolidin-3-amine]",≤ 1 µM
6,"Cn1cnc(S(=O)(=O)N2C[C@@H](NC(=O)c3cccc(Cl)c3Cl)[C@H](c3ccccc3)C2)c1 (relative stereo) [Example 31, 2,3-dichloro-N-{trans-1-[(1-methyl-1H-imidazol-4-yl)sulfonyl]-4-phenylpyrrolidin-3-yl}benzamide]",≤ 1 µM
7,"Cn1cnc(S(=O)(=O)N2C[C@@H](NC(=O)c3ccccc3C#N)[C@H](c3ccccc3)C2)c1 (relative stereo) [Example 32, 2-cyano-N-{trans-1-[(1-methyl-1H-imidazol-4-yl)sulfonyl]-4-phenylpyrrolidin-3-yl} benzamide]",≤ 10 µM
8,"Cn1cnc(S(=O)(=O)N2C[C@@H](NC(=O)c3ccc(C#N)cc3)[C@H](c3ccccc3)C2)c1 (relative stereo) [Example 34, 4-cyano-N-{trans-1-[(1-methyl-1H-imidazol-4-yl)sulfonyl]-4-phenylpyrrolidin-3-yl} benzamide]",≤ 10 µM
9,"Cn1cnc(S(=O)(=O)N2C[C@@H](NC(=O)c3ccccc3C(F)(F)F)[C@H](c3ccccc3)C2)c1 (relative stereo) [Example 35, N-{trans-1-[(1-methyl-1H-imidazol-4-yl)sulfonyl]-4-phenylpyrrolidin-3-yl}-2-(trifluoromethyl)benzamide]",≤ 10 µM
10,"Cn1cnc(S(=O)(=O)N2C[C@@H](NC(=O)c3cccc(C(F)(F)F)c3)[C@H](c3ccccc3)C2)c1 (relative stereo) [Example 36, N-{trans-1-[(1-methyl-1H-imidazol-4-yl)sulfonyl]-4-phenylpyrrolidin-3-yl}-3-(trifluoromethyl)benzamide]",≤ 1 µM
11,"Cn1cnc(S(=O)(=O)N2C[C@@H](NC(=O)c3ccc(C(F)(F)F)cc3)[C@H](c3ccccc3)C2)c1 (relative stereo) [Example 37, N-{trans-1-[(1-methyl-1H-imidazol-4-yl)sulfonyl]-4-phenylpyrrolidin-3-yl}-4-(trifluoromethyl)benzamide]",≤ 1 µM
12,"Cc1nn(C)c(Cl)c1S(=O)(=O)N1C[C@@H](NC(=O)c2cccc(C(F)(F)F)c2Cl)[C@H](c2ccccc2)C1 (relative stereo) [Example 40, 2-chloro-N-{trans-1-[(5-chloro-1,3-dimethyl-1H-pyrazol-4-yl)sulfonyl]-4-phenylpyrrolidin-3-yl}-3-(trifluoromethyl)benzamide]",≥ 10 µM
13,"Cc1c(S(=O)(=O)N2C[C@@H](NC(=O)c3cccc(C(F)(F)F)c3Cl)[C@H](c3ccccc3)C2)cnn1C (relative stereo) [Example 41, 2-chloro-N-{trans-1-[(1,5-dimethyl-1H-pyrazol-4-yl)sulfonyl]-4-phenylpyrrolidin-3-yl}-3-(trifluoromethyl)benzamide]",≤ 10 µM
14,"O=C(N[C@@H]1CN(S(=O)(=O)c2cn[nH]c2)C[C@H]1c1ccccc1)c1cccc(C(F)(F)F)c1Cl (relative stereo) [Example 46, 2-chloro-N-[trans-4-phenyl-1-(1H-pyrazol-4-ylsulfonyl)pyrrolidin-3-yl]-3-(trifluoromethyl)benzamide]",≥ 10 µM
15,"Cn1cnc(S(=O)(=O)N2C[C@@H](NC(=O)c3cccc(C(F)(F)F)c3Cl)[C@H](c3ccccc3)C2)c1Cl (relative stereo) [Example 48, 2-chloro-N-{trans-1-[(5-chloro-1-methyl-1H-imidazol-4-yl)sulfonyl]-4-phenylpyrrolidin-3-yl}-3-(trifluoromethyl)benzamide]",≤ 10 µM

# Second part, the molecule after the results:
row,Ki,SMILES
1,≤ 10 µM,"Cc1cccc(C(=O)N[C@@H]2CN(S(=O)(=O)c3cn(C)cn3)C[C@H]2c2ccccc2)c1 (relative stereo) [Example 23, 3-methyl-N-{trans-1-[(1-methyl-1H-imidazol-4-yl)sulfonyl]-4-phenylpyrrolidin-3-yl}benzamide]"
2,≤ 10 µM,"Cc1ccc(C(=O)N[C@@H]2CN(S(=O)(=O)c3cn(C)cn3)C[C@H]2c2ccccc2)cc1 (relative stereo) [Example 24, 4-methyl-N-{trans-1-[(1-methyl-1H-imidazol-4-yl)sulfonyl]-4-phenylpyrrolidin-3-yl}benzamide]"
3,≤ 1 µM,"Cn1cnc(S(=O)(=O)N2C[C@@H](NC(=O)c3ccc(Cl)cc3Cl)[C@H](c3ccccc3)C2)c1 (relative stereo) [Example 26, 2,4-dichloro-N-{trans-1-[(1-methyl-1H-imidazol-4-yl)sulfonyl]-4-phenylpyrrolidin-3-yl}benzamide]"
4,≤ 10 µM,"Cn1cnc(S(=O)(=O)N2C[C@@H](NC(=O)c3cc(Cl)cc(Cl)c3)[C@H](c3ccccc3)C2)c1 (relative stereo) [Example 30, 3,5-dichloro-N-{trans-1-[(1-methyl-1H-imidazol-4-yl)sulfonyl]-4-phenylpyrrolidin-3-yl}benzamide]"
5,≤ 10 µM,"Cn1cnc(S(=O)(=O)N2C[C@@H](NC(=O)c3cccc(C#N)c3)[C@H](c3ccccc3)C2)c1 (relative stereo) [Example 33, 3-cyano-N-{trans-1-[(1-methyl-1H-imidazol-4-yl)sulfonyl]-4-phenylpyrrolidin-3-yl}benzamide]"
6,≤ 10 µM,"Cn1cc(S(=O)(=O)N2C[C@@H](NC(=O)c3cccc(C(F)(F)F)c3Cl)[C@H](c3ccccc3)C2)c(C(F)(F)F)n1 (relative stereo) [Example 38, 2-chloro-N-[trans-1-{[1-methyl-3-(trifluoromethyl)-1H-pyrazol-4-yl]sulfonyl}-4-phenylpyrrolidin-3-yl]-3-(trifluoromethyl)benzamide]"
7,≤ 10 µM,"Cc1nn(C(F)F)c(C)c1S(=O)(=O)N1C[C@@H](NC(=O)c2cccc(C(F)(F)F)c2Cl)[C@H](c2ccccc2)C1 (relative stereo) [Example 39, 2-chloro-N-[trans-1-{[1-(difluoromethyl)-3,5-dimethyl-1H-pyrazol-4-yl]sulfonyl}-4-phenylpyrrolidin-3-yl]-3-(trifluoromethyl)benzamide]"
8,≤ 10 µM,"Cc1nn(C)cc1S(=O)(=O)N1C[C@@H](NC(=O)c2cccc(C(F)(F)F)c2Cl)[C@H](c2ccccc2)C1 (relative stereo) [Example 42, 2-chloro-N-{trans-1-[(1,3-dimethyl-1H-pyrazol-4-yl)sulfonyl]-4-phenylpyrrolidin-3-yl}-3-(trifluoromethyl)benzamide]"
9,≤ 10 µM,"Cn1cc(S(=O)(=O)N2C[C@@H](NC(=O)c3cccc(C(F)(F)F)c3Cl)[C@H](c3ccccc3)C2)cn1 (relative stereo) [Example 43, 2-chloro-N-{trans-1-[(1-methyl-1H-pyrazol-4-yl)sulfonyl]-4-phenylpyrrolidin-3-yl}-3-(trifluoromethyl)benzamide]"
10,≤ 10 µM,"COc1ccc(S(=O)(=O)N2C[C@@H](NC(=O)c3cccc(C(F)(F)F)c3Cl)[C@H](c3ccccc3)C2)cn1 (relative stereo) [Example 44, 2-chloro-N-{trans-1-[(6-methoxypyridin-3-yl)sulfonyl}-4-phenylpyrrolidin-3-yl}-3-(trifluoromethyl)benzamide]"
11,≥ 10 µM,"O=C(N[C@@H]1CN(S(=O)(=O)c2cccnc2)C[C@H]1c1ccccc1)c1cccc(C(F)(F)F)c1Cl (relative stereo) [Example 45, 2-chloro-N-[trans-4-phenyl-1-(pyridin-3-ylsulfonyl)pyrrolidin-3-yl]-3-(trifluoromethyl)benzamide]"
12,≥ 10 µM,"Cn1nccc1S(=O)(=O)N1C[C@@H](NC(=O)c2cccc(C(F)(F)F)c2Cl)[C@H](c2ccccc2)C1 (relative stereo) [Example 47, 2-chloro-N-{trans-1-[(1-methyl-1H-pyrazol-5-yl)sulfonyl]-4-phenylpyrrolidin-3-yl}-3-(trifluoromethyl)benzamide]"
